Measurements published in ChEMBL document CHEMBL3046000, “Design and synthesis of 1-(benzothiazol-5-yl)-1H-1,2,4-triazol-5-ones as protoporphyrinogen oxidase inhibitors” (Bioorg Med Chem, 2013).
pKi: −log10 of the molar value.

What was measured:
Brassica juncea [1] = test: Post-emergence herbicidal activity against Brassica juncea seedlings assessed as plant growth inhibition at 37.5 g ai/ha measured 15 days after compound treatment under greenhouse conditions; assay type: functional; details: 360 h, read-out: GI
Amaranthus retroflexus [2] = test: Post emergence herbicidal activity against Amaranthus retroflexus seedlings assessed as plant growth inhibition at 150 g ai/ha measured 15 days after compound treatment under greenhouse conditions; assay type: functional; details: 360 h, read-out: GI
Chenopodium album [3] = test: Post-emergence herbicidal activity against Chenopodium album seedlings assessed as plant growth inhibition at 75 g ai/ha measured 15 days after compound treatment under greenhouse conditions; assay type: functional; details: 360 h, read-out: GI
Chenopodium album [4] = test: Post-emergence herbicidal activity against Chenopodium album seedlings assessed as plant growth inhibition at 37.5 g ai/ha measured 15 days after compound treatment under greenhouse conditions; assay type: functional; details: 360 h, read-out: GI
Brassica juncea [5] = test: Post-emergence herbicidal activity against Brassica juncea seedlings assessed as plant growth inhibition at 150 g ai/ha measured 15 days after compound treatment under greenhouse conditions; assay type: functional; details: 360 h, read-out: GI
Echinochloa crus-galli [6] = test: Post emergence herbicidal activity against Echinochloa crus-galli (barnyard grass) seedlings assessed as plant growth inhibition at 75 g ai/ha measured 15 days after compound treatment under greenhouse conditions; assay type: functional; details: 360 h, read-out: GI
Echinochloa crus-galli [7] = test: Post emergence herbicidal activity against Echinochloa crus-galli (barnyard grass) seedlings assessed as plant growth inhibition at 150 g ai/ha measured 15 days after compound treatment under greenhouse conditions; assay type: functional; details: 360 h, read-out: GI
Echinochloa crus-galli [8] = test: Post emergence herbicidal activity against Echinochloa crus-galli (barnyard grass) seedlings assessed as plant growth inhibition at 37.5 g ai/ha measured 15 days after compound treatment under greenhouse conditions; assay type: functional; details: 360 h, read-out: GI
Setaria faberi [9] = test: Post-emergence herbicidal activity against Setaria faberi (Giant Foxtail) seedlings assessed as plant growth inhibition at 37.5 g ai/ha measured 15 days after compound treatment under greenhouse conditions; assay type: functional; details: 360 h, read-out: GI
Setaria faberi [10] = test: Post-emergence herbicidal activity against Setaria faberi (Giant Foxtail) seedlings assessed as plant growth inhibition at 150 g ai/ha measured 15 days after compound treatment under greenhouse conditions; assay type: functional; details: 360 h, read-out: GI
Amaranthus retroflexus [11] = test: Post emergence herbicidal activity against Amaranthus retroflexus seedlings assessed as plant growth inhibition at 37.5 g ai/ha measured 15 days after compound treatment under greenhouse conditions; assay type: functional; details: 360 h, read-out: GI
Digitaria sanguinalis [12] = test: Post-emergence herbicidal activity against Digitaria sanguinalis (hairy crabgrass) seedlings assessed as plant growth inhibition at 37.5 g ai/ha measured 15 days after compound treatment under greenhouse conditions; assay type: functional; details: 360 h, read-out: GI
Amaranthus retroflexus [13] = test: Post emergence herbicidal activity against Amaranthus retroflexus seedlings assessed as plant growth inhibition at 75 g ai/ha measured 15 days after compound treatment under greenhouse conditions; assay type: functional; details: 360 h, read-out: GI
Digitaria sanguinalis [14] = test: Post-emergence herbicidal activity against Digitaria sanguinalis (hairy crabgrass) seedlings assessed as plant growth inhibition at 150 g ai/ha measured 15 days after compound treatment under greenhouse conditions; assay type: functional; details: 360 h, read-out: GI
Setaria faberi [15] = test: Post-emergence herbicidal activity against Setaria faberi (Giant Foxtail) seedlings assessed as plant growth inhibition at 75 g ai/ha measured 15 days after compound treatment under greenhouse conditions; assay type: functional; details: 360 h, read-out: GI
Chenopodium album [16] = test: Post-emergence herbicidal activity against Chenopodium album seedlings assessed as plant growth inhibition at 150 g ai/ha measured 15 days after compound treatment under greenhouse conditions; assay type: functional; details: 360 h, read-out: GI
[17] = target: T1, Protoporphyrinogen oxidase, chloroplastic (Nicotiana tabacum, UniProt O24163); test: Inhibition of Nicotiana tabacum (tobacco) recombinant PPO assessed as protoporphyrin IX formation at room temperature by fluorimetric assay
T1 sequence (O24163 whole entry): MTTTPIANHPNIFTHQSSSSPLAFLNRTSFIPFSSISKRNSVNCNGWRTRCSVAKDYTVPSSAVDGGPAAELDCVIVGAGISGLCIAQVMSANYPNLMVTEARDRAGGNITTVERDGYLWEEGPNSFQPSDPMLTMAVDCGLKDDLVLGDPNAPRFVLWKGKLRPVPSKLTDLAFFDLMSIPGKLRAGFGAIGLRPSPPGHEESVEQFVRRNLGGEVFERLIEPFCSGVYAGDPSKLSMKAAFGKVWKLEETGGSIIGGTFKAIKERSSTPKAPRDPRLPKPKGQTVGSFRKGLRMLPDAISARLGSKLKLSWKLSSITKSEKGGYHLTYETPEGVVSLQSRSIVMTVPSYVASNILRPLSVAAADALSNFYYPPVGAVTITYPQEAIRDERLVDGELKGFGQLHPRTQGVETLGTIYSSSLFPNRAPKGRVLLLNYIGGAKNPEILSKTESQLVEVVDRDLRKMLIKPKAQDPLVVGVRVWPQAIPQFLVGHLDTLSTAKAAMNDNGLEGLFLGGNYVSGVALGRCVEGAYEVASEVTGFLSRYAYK

Brassica juncea [18] = test: Post-emergence herbicidal activity against Brassica juncea seedlings assessed as plant growth inhibition at 75 g ai/ha measured 15 days after compound treatment under greenhouse conditions; assay type: functional; details: 360 h, read-out: GI
Digitaria sanguinalis [19] = test: Post-emergence herbicidal activity against Digitaria sanguinalis (hairy crabgrass) seedlings assessed as plant growth inhibition at 75 g ai/ha measured 15 days after compound treatment under greenhouse conditions; assay type: functional; details: 360 h, read-out: GI

| SMILES | inhibition of growth at 37.5 g/ha (Brassica juncea [1]) [%] | inhibition of growth at 150 g/ha (Amaranthus retroflexus [2]) [%] | inhibition of growth at 75 g/ha (Chenopodium album [3]) [%] | inhibition of growth at 37.5 g/ha (Chenopodium album [4]) [%] | inhibition of growth at 150 g/ha (Brassica juncea [5]) [%] | inhibition of growth at 75 g/ha (Echinochloa crus-galli [6]) [%] | inhibition of growth at 150 g/ha (Echinochloa crus-galli [7]) [%] | inhibition of growth at 37.5 g/ha (Echinochloa crus-galli [8]) [%] | inhibition of growth at 37.5 g/ha (Setaria faberi [9]) [%] | inhibition of growth at 150 g/ha (Setaria faberi [10]) [%] | inhibition of growth at 37.5 g/ha (Amaranthus retroflexus [11]) [%] | inhibition of growth at 37.5 g/ha (Digitaria sanguinalis [12]) [%] | inhibition of growth at 75 g/ha (Amaranthus retroflexus [13]) [%] | inhibition of growth at 150 g/ha (Digitaria sanguinalis [14]) [%] | inhibition of growth at 75 g/ha (Setaria faberi [15]) [%] | inhibition of growth at 150 g/ha (Chenopodium album [16]) [%] | pKi [17] | inhibition of growth at 75 g/ha (Brassica juncea [18]) [%] | inhibition of growth at 75 g/ha (Digitaria sanguinalis [19]) [%] |
| --- | --- | --- | --- | --- | --- | --- | --- | --- | --- | --- | --- | --- | --- | --- | --- | --- | --- | --- | --- |
| Cc1nn(-c2cc3nc(SC(C)C(=O)O)sc3cc2F)c(=O)n1C(F)F (configuration not stated) | ≥ 90 | ≥ 90 | ≥ 90 | 50 | ≥ 90 | 60 | ≥ 90 | 60 | 60 | ≥ 90 | ≥ 90 | < 50 | ≥ 90 | ≥ 90 | 60 | ≥ 90 | 5.92 | ≥ 90 | < 50 |
| Cc1nn(-c2cc3nc(SCCC(=O)O)sc3cc2Cl)c(=O)n1C(F)F | 50 | ≥ 90 | < 50 | < 50 | ≥ 90 | 50 | < 50 | 50 | 60 | < 50 | < 50 | < 50 | < 50 | < 50 | 60 | ≥ 90 | 4.75 | 60 | < 50 |
| CCOC(=O)CSc1nc2cc(-n3nc(C)n(C(F)F)c3=O)c(Br)cc2s1 | 80 | ≥ 90 | ≥ 90 | ≥ 90 | ≥ 90 | 60 | 50 | 50 | 50 | 80 | ≥ 90 | 50 | ≥ 90 | 80 | 60 | ≥ 90 | 5.10 | 80 | 60 |
| Cc1nn(-c2cc3nc(SC(C)C(=O)O)sc3cc2Cl)c(=O)n1C(F)F (configuration not stated) | < 50 | ≥ 90 | ≥ 90 | 60 | ≥ 90 | < 50 | ≥ 90 | < 50 | < 50 | ≥ 90 | < 50 | < 50 | 60 | ≥ 90 | < 50 | ≥ 90 | 5.17 | 80 | < 50 |
| CCOC(=O)CSc1nc2cc(-n3nc(C)n(C(F)F)c3=O)c(F)cc2s1 | 80 | 60 | 80 | 80 | ≥ 90 | 50 | ≥ 90 | < 50 | < 50 | ≥ 90 | 80 | < 50 | 80 | ≥ 90 | < 50 | 80 | 7.22 | 80 | 50 |
| Cc1nn(-c2cc3nc(SCC(=O)O)sc3cc2Cl)c(=O)n1C(F)F | 60 | ≥ 90 | ≥ 90 | 80 | ≥ 90 | < 50 | ≥ 90 | < 50 | < 50 | ≥ 90 | 50 | < 50 | ≥ 90 | ≥ 90 | < 50 | ≥ 90 | 4.99 | ≥ 90 | < 50 |
| COC(=O)CSc1nc2cc(-n3nc(C)n(C(F)F)c3=O)c(Cl)cc2s1 | 60 | ≥ 90 | ≥ 90 | ≥ 90 | ≥ 90 | 50 | ≥ 90 | 50 | 50 | ≥ 90 | 60 | < 50 | ≥ 90 | ≥ 90 | 50 | 60 | 4.82 | 80 | < 50 |
| Cc1nn(-c2cc3nc(SCC(=O)O)sc3cc2F)c(=O)n1C(F)F | < 50 | ≥ 90 | 80 | 80 | ≥ 90 | 50 | ≥ 90 | 50 | 50 | ≥ 90 | ≥ 90 | < 50 | ≥ 90 | ≥ 90 | 50 | ≥ 90 | 5.82 | 80 | < 50 |
